Literature values as cited in patent publication US20130121963A1, “N-PHENYL-2-PYRIMIDINEAMINE DERIVATIVES” (Concert Pharmaceuticals Inc., priority 2008, published 2013).

half-life (from the FDA label for imatinib): 40 h | plasma AUC of the metabolite relative to that of the parent (percent of the parent (imatinib) plasma AUC, from the FDA label): approximately 15%
SMILES: Cc1ccc(NC(=O)c2ccc(CN3CCNCC3)cc2)cc1Nc1nccc(-c2cccnc2)n1 [N-demethylated piperazine derivative]
